Source: PMC2790607, “Finding of the Low Molecular Weight Inhibitors of Resuscitation Promoting Factor Enzymatic and Resuscitation Activity” (PLoS ONE, 2009)
Values after ≈ are worked out from the molar mass of the structure shown. Where two headings read alike, the source gives them in different places.

Key:
Rpf Sm [1] = target: T1, Rpf Sm (Micrococcus luteus, UniProt O86308); settings: inhibitor 2 and 4 µg/ml, Rpf Sm 40 µg/ml
T1 construct: His-tag (inferred from the pET19b vector and the Ni2+-chelation purification); made in house; host or cells: E. coli HSM174 (DE3)

Micrococcus luteus = test: microbe, parasite or virus in culture; assay type: cell-based; settings: Micrococcus luteus; lowest concentration which suppresses growth; determined during 24 hours; NI = no inhibition was observed
Rpf Sm [2] = target: T1, Rpf Sm; test: Muralytic activity of Rpf, 4-MUF-3-NAG hydrolysis; assay type: biochemical, M. luteus
Method: The truncated form of M.luteus Rpf (RpfSm) was used for the analysis. The truncated protein contained conserved Rpf domain and additional 20 amino acids of the gene product, corresponding to the following amino acid sequence:
To determine a muralytic activity of the recombinant Rpfs', 4-methylumbelliferyl-β-D-N, N′, N″-triacetylchitotrioside (4-MUF-3-NAG) (“Sigma”, Germany) was applied. […] A number of experiments were performed in the presence of NPT compounds, in concentration range of 0.5–10 µg/ml. After 3 hours of incubation at 37°C, 2 µl of 10 M NaOH was added and the samples were frozen and kept at −20°C. […] The intensity of fluorescence was detected by the RF-5301PC fluorimeter (“SHIMADZU”, Japan) using excitation wavelength of 364 nm and a read-out of 448 nm.

[3] = test system: M. smegmatis "non-culturable" cells; assay type: cell-based, Mycobacterium smegmatis; settings: MPN assay
ΔDUFRpf B [4] = target: T2, ΔDUFRpf B (Mycobacterium tuberculosis, UniProt P9WG29); design: species or system M. tuberculosis; settings: inhibitor 2 and 4 µg/ml, ΔDUFRpf B 60 µg/ml
[5] = test system: Alcoholdehydrohenase(1.1.1.1); test: Alcoholdehydrogenase activity (NAD+ to NADH, OD340); assay type: biochemical; settings: control 1.7
Method: (§1) Alcoholdehydrohenase(1.1.1.1) activity: ADH was dissolved in 50 mM phospahe buffer pH 7 at the concentration 10 µg/ml. The rate of the reaction was judged by transformation of NAD^+ (1 mM) into NADH+H^+. As the substrate ethanol was used. Activity was measured by OD340. Laccase(1.10.3.2) activity: Laccase was dissolved in the 50 mM citrate-phosphate buffer, pH4.5 at concentration 9 µg/ml. Pyrocatechin was used at concentration 11 µg/ml. Activity was measured by OD410. Trypsin(3.4.21.4) activity: The enzyme at concentration 8.0 µg/ml was dissolved in 50 mM Tris-HCl buffer pH 8.0. Concentration of the substrate (N-CBz-Gly-Gly-Arg-β-naphthylamide - Sigma-Aldrich)- 11 µg/ml. Registration of the kinetic curves was made fluorimetrically - excitation wavelength - 330 nm; emission - 420 nm. (0.02 MB DOC) Click here for additional data file.

ΔDUFRpf B [6] = target: T2, ΔDUFRpf B; assay type: binding, M. tuberculosis
Trypsin(3.4.21.4) = test: Trypsin activity (fluorimetric); assay type: biochemical; settings: control 10
Method: as §1

[7] = test system: M. tuberculosis "non-culturable" cells; assay type: cell-based, Mycobacterium tuberculosis; settings: for MPN, logarithmic transformation of cell concentration (cells/ml): inhibitor 10 µg/ml
M. smegmatis = assay type: cell-based, Mycobacterium smegmatis; settings: at 0.1–1 µg/ml (not shown)
Laccase(1.10.3.2) = test: Laccase activity (pyrocatechin, OD410); assay type: biochemical; settings: control 3.6
Method: as §1

T1 sequence (O86308 42-134): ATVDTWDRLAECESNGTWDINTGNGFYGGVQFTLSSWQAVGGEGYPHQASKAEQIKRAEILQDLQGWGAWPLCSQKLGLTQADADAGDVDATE
T2 sequence (P9WG29 whole entry, looked up, stated change not applied): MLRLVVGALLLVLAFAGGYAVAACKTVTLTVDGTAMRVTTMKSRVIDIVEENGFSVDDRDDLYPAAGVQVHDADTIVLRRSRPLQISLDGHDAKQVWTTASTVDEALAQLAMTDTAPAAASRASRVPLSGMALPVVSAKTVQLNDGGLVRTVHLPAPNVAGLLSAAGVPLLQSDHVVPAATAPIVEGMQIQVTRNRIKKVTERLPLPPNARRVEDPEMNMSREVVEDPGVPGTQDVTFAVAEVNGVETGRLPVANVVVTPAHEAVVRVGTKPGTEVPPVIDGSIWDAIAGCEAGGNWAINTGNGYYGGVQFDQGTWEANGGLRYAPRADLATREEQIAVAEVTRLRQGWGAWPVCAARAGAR

SMILES | melting point [°C] | MIC (Micrococcus luteus) [µg/mL] | concentrations active in suppressing resuscitation of M. smegmatis [3] [µg/mL] | τ1/2, time needed to achieve a 50% level of substrate conversion, Alchoholdehydrohenase ([5]; compound 4 µg/ml) [s] | τ1/2, time needed to achieve a 50% level of substrate conversion, Alchoholdehydrohenase ([5]; compound 10 µg/ml) [s] | τ1/2, time needed to achieve a 50% level of substrate conversion, Trypsin (Trypsin(3.4.21.4); compound 4 µg/ml) [s] | τ1/2, time needed to achieve a 50% level of substrate conversion, Trypsin (Trypsin(3.4.21.4); compound 10 µg/ml) [s] | MPN, logarithmic transformation of cell concentration (cells/ml) ([7]; time 0 days) | MPN, logarithmic transformation of cell concentration (cells/ml) ([7]; time 14 days) | MPN, logarithmic transformation of cell concentration (cells/ml) ([7]; time 19 days) | MPN, logarithmic transformation of cell concentration (cells/ml) ([7]; time 21 days) | MPN, logarithmic transformation of cell concentration (cells/ml) ([7]; time 23 days) | MPN, logarithmic transformation of cell concentration (cells/ml) ([7]; time 27 days) | MPN, logarithmic transformation of cell concentration (cells/ml) ([7]; time 30 days) | MPN, logarithmic transformation of cell concentration (cells/ml) ([7]; time 33 days) | MPN, logarithmic transformation of cell concentration (cells/ml) ([7]; time 36 days) | MPN, logarithmic transformation of cell concentration (cells/ml) ([7]; time 40 days) | growth of active cells of M. smegmatis (M. smegmatis) | τ1/2, time needed to achieve a 50% level of substrate conversion, Laccase (Laccase(1.10.3.2); compound 4 µg/ml) [s] | τ1/2, time needed to achieve a 50% level of substrate conversion, Laccase (Laccase(1.10.3.2); compound 10 µg/ml) [s] | also measured
N#CSc1ccc(C(=O)c2ccccc2)cc1[N+](=O)[O-] [VII, 4-Benzoyl-2-nitrophenyl thiocyanate] | 104 to 106 | 1 to 5 (≈ 3.52 to 17.6 µM) | 0.1 to 1 | 1.75 | 1.7 | 10 | 10 | 3.48 | 3.48 | 3.48 | 3.86 | 5.38 | 6.18 | 6.18 | 6.18 | 6.18 | 6.18 | did not inhibit growth | 3.6 | 3.5 | changes in the CD spectra of Rpf Sm (Rpf Sm [1]): did not produce significant changes; IC50 (Rpf Sm [2]): 6.68 µM; type of inhibition of Rpf-Sm muralytic activity (Lineweaver-Burk plot) (Rpf Sm [2]; substrate 3 to 24 µM, inhibitor 0.5 to 10 µg/ml): non-competitive inhibition; changes in the CD spectra of ΔDUFRpf B (ΔDUFRpf B [4]): did not produce significant changes; interaction with the buried tryptophanes of ΔDUFRpfB (ΔDUFRpf B [6]; fluorescence studies): interacted with at least two exposed and one buried tryptophan; accessible fraction of ΔDUFRpfB tryptophanes (fa) (ΔDUFRpf B [6]; modified Stern-Volmer equation, excitation 280 nm, emission 340 nm): ~65%
N#CSc1cc(SC#N)c([N+](=O)[O-])cc1[N+](=O)[O-] [III, 1,5-Dinitro-2,4-dithiocyanatobenzene] | 78 to 80 | 5 (≈ 17.7 µM) | 0.1 to 1 | 1.7 | 1.7 | 10 | 10 | 3.48 | 3.48 | 3.86 | 4.63 | 4.63 | 5.66 | 6.38 | 6.38 | 6.38 | 6.38 | did not inhibit growth | 3.6 | 3.5 | IC50 (Rpf Sm [2]; pH 6.0, 3 hours at 37°C, NI = no inhibition was observed, read-out: 4-MUF-3-NAG hydrolysis IC50, Rpf Sm (converted)): 4.25 µM; effect on resuscitation of M. tuberculosis "non-culturable" cells ([7]; 10 µg/ml, MPN assay, versus untreated resuscitating cells): practically did not influence resuscitation
